Results as given in patent publication US20220079944A1, “2H-INDAZOLE DERIVATIVES AS THERAPEUTIC AGENTS FOR BRAIN CANCERS AND BRAIN METASTASES” (BETA PHARMA, INC., priority 2019, published 2022).
Read-outs that look alike come from different tables or passages of the source. One block for each compound: values may come before it.

What was measured:
[1] = tested on: MDR1 (P-gp); assay: in vitro; details: dog, MDCK-MDR1
Experimental: MDR1-MDCK cell monolayers were grown to confluence on collagen-coated, microporous membranes in 12-well assay plates. […] The permeability assay buffer was Hanks' balanced salt solution (HBSS) containing 10 mM HEPES and 15 mM glucose at a pH of 7.4. The buffer in the receiver chamber also contained 1% bovine serum albumin. The dosing solution concentration was 5 μM of test article in the assay buffer+/−1 μM valspodar. Cells were first pre-incubated for 30 minutes with HBSS containing +/−1 μM valspodar. Cell monolayers were dosed on the apical side (A-to-B) or basolateral side (B-to-A) and incubated at 37° C. with 5% CO2 in a humidified incubator. Samples were taken from the donor and receiver chambers at 120 minutes. Each determination was performed in duplicate. The flux of lucifer yellow was also measured post-experimentally for each monolayer to ensure no damage was inflicted to the cell monolayers during the flux period. All samples were assayed by LC-MS/MS using electrospray ionization.

[2] = Brain concentration and brain/plasma ratio in mouse after 10 mg/kg p.o.; format: in vivo; details: PO 10 mg/kg
[3] = molecular target: p-glycoprotein (P-gp) (Homo sapiens, UniProt P08183); details: background statement; cited from earlier work
[4] = brain, po, 10 mg/kg, individual animal R1, read-out: Brain Concentration, R1 + 3n
[5] = brain, po, 10 mg/kg, individual animal R2, read-out: Brain Concentration, R2 + 3n
[6] = brain, po, 10 mg/kg, individual animal R3, read-out: Brain Concentration, R3 + 3n
[7] = brain, po, 10 mg/kg, mean, read-out: Brain Concentration, Mean PO
[8] = plasma, po, 10 mg/kg, individual animal R1, read-out: Plasma Concentration, R1 + 3n
[9] = plasma, po, 10 mg/kg, individual animal R2, read-out: Plasma Concentration, R2 + 3n
[10] = plasma, po, 10 mg/kg, individual animal R3, read-out: Plasma Concentration, R3 + 3n
[11] = plasma, po, 10 mg/kg, mean, read-out: Plasma Concentration, Mean PO

Sequence of p-glycoprotein (P-gp) (P08183 whole entry): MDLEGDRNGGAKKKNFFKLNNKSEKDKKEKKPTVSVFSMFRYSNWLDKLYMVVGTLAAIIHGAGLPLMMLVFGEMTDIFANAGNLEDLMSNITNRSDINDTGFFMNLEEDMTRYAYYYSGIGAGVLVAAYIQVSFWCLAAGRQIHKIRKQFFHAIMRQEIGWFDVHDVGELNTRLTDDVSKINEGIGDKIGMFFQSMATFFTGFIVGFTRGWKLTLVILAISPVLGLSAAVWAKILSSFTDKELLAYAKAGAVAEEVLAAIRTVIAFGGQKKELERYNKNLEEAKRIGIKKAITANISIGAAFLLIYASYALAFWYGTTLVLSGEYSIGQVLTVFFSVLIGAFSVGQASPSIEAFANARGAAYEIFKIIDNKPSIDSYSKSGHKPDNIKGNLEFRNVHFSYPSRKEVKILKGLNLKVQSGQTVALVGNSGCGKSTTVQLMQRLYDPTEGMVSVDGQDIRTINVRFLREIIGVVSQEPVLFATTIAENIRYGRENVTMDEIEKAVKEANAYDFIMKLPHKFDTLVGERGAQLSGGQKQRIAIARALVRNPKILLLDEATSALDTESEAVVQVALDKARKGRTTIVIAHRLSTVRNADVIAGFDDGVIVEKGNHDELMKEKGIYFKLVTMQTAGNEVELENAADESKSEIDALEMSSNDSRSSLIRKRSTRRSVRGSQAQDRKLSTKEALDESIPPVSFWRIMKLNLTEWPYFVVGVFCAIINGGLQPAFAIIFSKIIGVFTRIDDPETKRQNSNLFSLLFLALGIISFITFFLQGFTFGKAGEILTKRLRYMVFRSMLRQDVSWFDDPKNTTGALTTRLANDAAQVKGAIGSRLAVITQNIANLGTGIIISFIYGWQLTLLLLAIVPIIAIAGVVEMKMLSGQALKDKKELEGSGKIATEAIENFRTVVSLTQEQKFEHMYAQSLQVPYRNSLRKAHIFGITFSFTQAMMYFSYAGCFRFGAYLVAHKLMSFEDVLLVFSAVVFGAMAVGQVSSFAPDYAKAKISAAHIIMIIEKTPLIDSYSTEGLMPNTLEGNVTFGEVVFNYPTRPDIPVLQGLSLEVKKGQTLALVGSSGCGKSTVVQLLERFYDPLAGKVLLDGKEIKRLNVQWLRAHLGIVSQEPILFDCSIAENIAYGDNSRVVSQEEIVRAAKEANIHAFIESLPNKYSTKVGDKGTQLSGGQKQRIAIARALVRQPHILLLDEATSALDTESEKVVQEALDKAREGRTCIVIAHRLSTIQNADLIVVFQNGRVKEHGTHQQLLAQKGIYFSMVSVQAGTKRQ

Papp A→B [1]: 0.05 ×10⁻⁶ cm/s | Papp B→A [1]: 13.9 ×10⁻⁶ cm/s | efflux ratio [1]: 254
Structure (SMILES): C[C@H]1O[C@@H](O[C@H]2[C@@H](O)C[C@H](O[C@H]3[C@@H](O)C[C@H](O[C@H]4CC[C@@]5(C)[C@H](CC[C@@H]6[C@@H]5C[C@@H](O)[C@]5(C)[C@@H](C7=CC(=O)OC7)CC[C@]65O)C4)O[C@@H]3C)O[C@@H]2C)C[C@H](O)[C@@H]1O [Digoxin]

Papp [1]: 12.8 ×10⁻⁶ cm/s
Structure (SMILES): CC(C)NCC(O)COc1cccc2ccccc12 (stereo not drawn) [Propranolol]

AUC0-last Ratio, brain/plasma (B/P) ratio ([2]; brain AUC0-last / plasma AUC0-last, 10 mg/kg): 0.432 | Brain AUC0-last ([2]; brain, from mean concentrations): 4085 ng·h/g | AUC(0-t) ([2]; plasma, from mean concentrations, read-out: Plasma AUC0-last): 9450 ng·h/mL | concentration at 2 h [2, 4]: 216 ng/g | concentration at 2 h [2, 5]: 326 ng/g | concentration at 2 h [2, 6]: 302 ng/g | concentration at 2 h [2, 7]: 282 ng/g | concentration at 4 h [2, 4]: 452 ng/g | concentration at 4 h [2, 5]: 370 ng/g | concentration at 4 h [2, 6]: 469 ng/g | concentration at 4 h [2, 7]: 430 ng/g | concentration at 8 h [2, 4]: 421 ng/g | concentration at 8 h [2, 5]: 277 ng/g | concentration at 8 h [2, 6]: 341 ng/g | concentration at 8 h [2, 7]: 347 ng/g | concentration at 24 h [2, 4]: 6.51 ng/g | concentration at 24 h [2, 5]: 14.8 ng/g | concentration at 24 h [2, 6]: 10.6 ng/g | concentration at 24 h [2, 7]: 10.6 ng/g | Kp ([2]; brain, po, 10 mg/kg, brain AUC0-last / plasma AUC0-last, read-out: AUC0-last Ratio, brain/plasma (B/P) ratio): 0.43 | concentration at 2 h [2, 8]: 633 ng/mL | concentration at 2 h [2, 9]: 1060 ng/mL | concentration at 2 h [2, 10]: 821 ng/mL | concentration at 2 h [2, 11]: 836 ng/mL | concentration at 4 h [2, 8]: 700 ng/mL | concentration at 4 h [2, 9]: 744 ng/mL | concentration at 4 h [2, 10]: 963 ng/mL | concentration at 4 h [2, 11]: 802 ng/mL | concentration at 8 h [2, 8]: 1020 ng/mL | concentration at 8 h [2, 9]: 707 ng/mL | concentration at 8 h [2, 10]: 780 ng/mL | concentration at 8 h [2, 11]: 837 ng/mL | concentration at 24 h [2, 8]: 11.5 ng/mL | concentration at 24 h [2, 9]: 46.7 ng/mL | concentration at 24 h [2, 10]: 16.6 ng/mL | concentration at 24 h [2, 11]: 24.9 ng/mL
Structure (SMILES): CCN1CCN(Cc2ccc(Nc3ncc(F)c(-c4cc(F)c5nc(C)n(C(C)C)c5c4)n3)nc2)CC1 [abemaciclib, reference compound]
P-gp substrate [3]: p-glycoprotein (P-gp) substrates

Structure (SMILES): CC(=O)c1c(C)c2cnc(Nc3ccc(N4CCNCC4)cn3)nc2n(C2CCCC2)c1=O [palbociclib]
P-gp substrate [3]: p-glycoprotein (P-gp) substrates
